Assay results from the NIST ThermoML archive (doi:10.1016/j.fluid.2008.03.004).

Test: xn = mol fraction of the nth substance listed
Settings: 101 kPa, Liquid; for speed of sound: Sing-around technique in a fixed-path interferometer

COC(C)(C)C [2-methoxy-2-methylpropane] + Cc1ccc(C)cc1
Settings	mass density [kg/m3]	speed of sound [m/s]
288.15 K, x1 = 0.051	859.904	1337.8
288.15 K, x1 = 0.111	853.391	1325
288.15 K, x1 = 0.199	843.55	1302.9
288.15 K, x1 = 0.297	832.629	1278.6
288.15 K, x1 = 0.394	821.398	1253
288.15 K, x1 = 0.5	808.782	1223.9
288.15 K, x1 = 0.591	797.744	1199.5
288.15 K, x1 = 0.7	784.294	1169.8
288.15 K, x1 = 0.799	771.481	1140.7
288.15 K, x1 = 0.898	758.534	1112.1
288.15 K, x1 = 0.949	751.828	1096.4
288.15 K, x1 = 1	744.861	1083.4
290.65 K, x1 = 0.051	857.719	1327.2
290.65 K, x1 = 0.111	851.187	1314.2
290.65 K, x1 = 0.199	841.317	1292.2
290.65 K, x1 = 0.297	830.36	1267.7
290.65 K, x1 = 0.394	819.092	1242
290.65 K, x1 = 0.5	806.435	1212.8
290.65 K, x1 = 0.591	795.358	1188.4
290.65 K, x1 = 0.7	781.856	1158.4
290.65 K, x1 = 0.799	768.993	1129.2
290.65 K, x1 = 0.898	755.997	1100.5
290.65 K, x1 = 0.949	749.262	1084.7
290.65 K, x1 = 1	742.259	1071.6
293.15 K, x1 = 0.051	855.534	1316.8
293.15 K, x1 = 0.111	848.983	1303.7
293.15 K, x1 = 0.199	839.08	1281.6
293.15 K, x1 = 0.297	828.088	1257
293.15 K, x1 = 0.394	816.783	1231.1
293.15 K, x1 = 0.5	804.082	1201.9
293.15 K, x1 = 0.591	792.963	1177.3
293.15 K, x1 = 0.7	779.412	1147.2
293.15 K, x1 = 0.799	766.5	1117.9
293.15 K, x1 = 0.898	753.452	1089
293.15 K, x1 = 0.949	746.689	1073.2
293.15 K, x1 = 1	739.654	1060
295.65 K, x1 = 0.051	853.348	1306.5
295.65 K, x1 = 0.111	846.775	1293.1
295.65 K, x1 = 0.199	836.841	1271
295.65 K, x1 = 0.297	825.813	1246.2
295.65 K, x1 = 0.394	814.47	1220.2
295.65 K, x1 = 0.5	801.723	1191
295.65 K, x1 = 0.591	790.564	1166.2
295.65 K, x1 = 0.7	776.96	1135.9
295.65 K, x1 = 0.799	763.998	1106.6
295.65 K, x1 = 0.898	750.898	1077.5
295.65 K, x1 = 0.949	744.102	1061.7
295.65 K, x1 = 1	737.036	1048.5
298.15 K, x1 = 0.051	851.161	1296.3
298.15 K, x1 = 0.111	844.568	1282.7
298.15 K, x1 = 0.199	834.598	1260.5
298.15 K, x1 = 0.297	823.534	1235.5
298.15 K, x1 = 0.394	812.151	1209.4
298.15 K, x1 = 0.5	799.359	1180.1
298.15 K, x1 = 0.591	788.159	1155.2
298.15 K, x1 = 0.7	774.504	1124.7
298.15 K, x1 = 0.799	761.487	1095.3
298.15 K, x1 = 0.898	748.333	1066
298.15 K, x1 = 0.949	741.507	1050.2
298.15 K, x1 = 1	734.406	1036.9
300.65 K, x1 = 0.051	848.97	1286.1
300.65 K, x1 = 0.111	842.356	1272.2
300.65 K, x1 = 0.199	832.351	1249.9
300.65 K, x1 = 0.297	821.251	1224.8
300.65 K, x1 = 0.394	809.83	1198.7
300.65 K, x1 = 0.5	796.99	1169.2
300.65 K, x1 = 0.591	785.75	1144.2
300.65 K, x1 = 0.7	772.04	1113.5
300.65 K, x1 = 0.799	758.97	1084
300.65 K, x1 = 0.898	745.759	1054.6
300.65 K, x1 = 0.949	738.9	1038.8
300.65 K, x1 = 1	731.766	1025.4
303.15 K, x1 = 0.051	846.775	1275.9
303.15 K, x1 = 0.111	840.14	1261.8
303.15 K, x1 = 0.199	830.102	1239.4
303.15 K, x1 = 0.297	818.963	1214.2
303.15 K, x1 = 0.394	807.503	1187.9
303.15 K, x1 = 0.5	794.615	1158.4
303.15 K, x1 = 0.591	783.333	1133.2
303.15 K, x1 = 0.7	769.567	1102.4
303.15 K, x1 = 0.799	756.446	1072.8
303.15 K, x1 = 0.898	743.176	1043.3
303.15 K, x1 = 0.949	736.284	1027.4
303.15 K, x1 = 1	729.112	1013.9
305.65 K, x1 = 0.051	844.579	1265.7
305.65 K, x1 = 0.111	837.921	1251.5
305.65 K, x1 = 0.199	827.849	1228.9
305.65 K, x1 = 0.297	816.672	1203.5
305.65 K, x1 = 0.394	805.171	1177.3
305.65 K, x1 = 0.5	792.236	1147.6
305.65 K, x1 = 0.591	780.907	1122.3
305.65 K, x1 = 0.7	767.085	1091.3
305.65 K, x1 = 0.799	753.909	1061.6
305.65 K, x1 = 0.898	740.58	1031.9
305.65 K, x1 = 0.949	733.654	1016
305.65 K, x1 = 1	726.444	1002.4
308.15 K, x1 = 0.051	842.382	1255.6
308.15 K, x1 = 0.111	835.701	1241.2
308.15 K, x1 = 0.199	825.592	1218.5
308.15 K, x1 = 0.297	814.375	1193
308.15 K, x1 = 0.394	802.832	1166.6
308.15 K, x1 = 0.5	789.848	1136.9
308.15 K, x1 = 0.591	778.473	1111.4
308.15 K, x1 = 0.7	764.594	1080.2
308.15 K, x1 = 0.799	751.361	1050.5
308.15 K, x1 = 0.898	737.971	1020.6
308.15 K, x1 = 0.949	731.009	1004.7
308.15 K, x1 = 1	723.763	990.99
310.65 K, x1 = 0.051	840.182	1245.6
310.65 K, x1 = 0.111	833.476	1230.9
310.65 K, x1 = 0.199	823.333	1208.2
310.65 K, x1 = 0.297	812.074	1182.6
310.65 K, x1 = 0.394	800.49	1156.1
310.65 K, x1 = 0.5	787.456	1126.2
310.65 K, x1 = 0.591	776.037	1100.6
310.65 K, x1 = 0.7	762.097	1069.3
310.65 K, x1 = 0.799	748.806	1039.4
310.65 K, x1 = 0.898	735.351	1009.4
310.65 K, x1 = 0.949	728.354	993.41
310.65 K, x1 = 1	721.069	979.62
313.15 K, x1 = 0.051	837.972	1235.6
313.15 K, x1 = 0.111	831.247	1220.7
313.15 K, x1 = 0.199	821.068	1197.8
313.15 K, x1 = 0.297	809.766	1172.2
313.15 K, x1 = 0.394	798.142	1145.5
313.15 K, x1 = 0.5	785.055	1115.5
313.15 K, x1 = 0.591	773.588	1089.9
313.15 K, x1 = 0.7	759.588	1058.4
313.15 K, x1 = 0.799	746.238	1028.3
313.15 K, x1 = 0.898	732.717	998.27
313.15 K, x1 = 0.949	725.685	982.13
313.15 K, x1 = 1	718.357	968.16
315.65 K, x1 = 0.051	835.765	1225.6
315.65 K, x1 = 0.111	829.014	1210.5
315.65 K, x1 = 0.199	818.798	1187.5
315.65 K, x1 = 0.297	807.454	1161.8
315.65 K, x1 = 0.394	795.788	1135
315.65 K, x1 = 0.5	782.649	1104.9
315.65 K, x1 = 0.591	771.132	1079.1
315.65 K, x1 = 0.7	757.069	1047.5
315.65 K, x1 = 0.799	743.66	1017.3
315.65 K, x1 = 0.898	730.073	987.1
315.65 K, x1 = 0.949	723.003	970.91
315.65 K, x1 = 1	715.636	956.8
318.15 K, x1 = 0.051	833.554	1215.7
318.15 K, x1 = 0.111	826.778	1200.4
318.15 K, x1 = 0.199	816.524	1177.3
318.15 K, x1 = 0.297	805.138	1151.5
318.15 K, x1 = 0.394	793.428	1124.6
318.15 K, x1 = 0.5	780.236	1094.3
318.15 K, x1 = 0.591	768.668	1068.5
318.15 K, x1 = 0.7	754.544	1036.7
318.15 K, x1 = 0.799	741.073	1006.4
318.15 K, x1 = 0.898	727.417	976.02
318.15 K, x1 = 0.949	720.308	959.76
318.15 K, x1 = 1	712.897	945.54
320.65 K, x1 = 0.051	831.342	1205.8
320.65 K, x1 = 0.111	824.54	1190.3
320.65 K, x1 = 0.199	814.248	1167.1
320.65 K, x1 = 0.297	802.819	1141.1
320.65 K, x1 = 0.394	791.063	1114.2
320.65 K, x1 = 0.5	777.817	1083.8
320.65 K, x1 = 0.591	766.199	1057.9
320.65 K, x1 = 0.7	752.007	1025.9
320.65 K, x1 = 0.799	738.474	995.49
320.65 K, x1 = 0.898	724.747	964.93
320.65 K, x1 = 0.949	717.599	948.61
320.65 K, x1 = 1	710.141	934.24
323.15 K, x1 = 0.051	829.134	1196
323.15 K, x1 = 0.111	822.307	1180.4
323.15 K, x1 = 0.199	811.976	1157.1
323.15 K, x1 = 0.297	800.501	1131
323.15 K, x1 = 0.394	788.703	1103.9
323.15 K, x1 = 0.5	775.403	1073.3
323.15 K, x1 = 0.591	763.728	1047.4
323.15 K, x1 = 0.7	749.471	1015.2
323.15 K, x1 = 0.799	735.877	984.7
323.15 K, x1 = 0.898	722.077	954
323.15 K, x1 = 0.949	714.887	937.58
323.15 K, x1 = 1	707.381	922.97
